{"source": "paper PMC11323699", "about": "“The CD47/TSP-1 axis: a promising avenue for ovarian cancer treatment and biomarker research” (Molecular Cancer, 2024)", "key": {"[1]": {"system": "ID8 Trp53−/− Brca2−/− ovarian carcinoma cells", "settings": "mouse, in vivo, 10 mg/kg", "quoted_text": "After 5 (IP model) or 10 (SC model) weeks of tumor growth, mice received an IV bolus dose of TAX2-Cy5 at 10 mg/kg BW in injectable saline solution. After in vivo imaging and mouse euthanasia, subcutaneous tumor or peritoneal tumor mass and metastatic nodules, were collected and imaged with instrument sensitivity set to “Normal” using the same protocol as described above for healthy mice. TAX2-Cy5 concentration was calculated as described above."}, "[2]": {"system": "ID8 Trp53−/− Brca2−/− cells", "assay": "TAX2 efficacy alone or in sequential combination with olaparib, metastatic peritoneal carcinomatosis model", "format": "in vivo, C57BL/6 J mice", "settings": "for Mouse survival, prolonged olaparib design: from day 7 post inoculation olaparib 50 mg/kg per os daily 5 weeks, then TAX2 30 mg/kg IV three times a week, n = 7–11 per group, p = 0.0014 post discontinuation, median survival p = 0.0205; for Animal survival versus controls (Kaplan–Meier): same regimens as Fig. 6b, Gehan–Breslow–Wilcoxon test, TAX2 p = 0.0347 vs controls; for Median survival: treatment from day after IP inoculation, TAX2 30 mg/kg IV 3 times weekly for 6 weeks or olaparib 50 mg/kg per os daily for 2 weeks, n = 9–19 per group, end point 20% body weight gain", "description": "Eight-week-old C57BL/6 J mice were IP injected with 2 × 10^6 ID8 Trp53^−/− Brca2^−/− cells in 300 µL HBSS. For mouse treatments, TAX2 peptide was IV injected at 30 to 100 mg/kg, three times a week; olaparib (catalog no. M1664, AbMole, TX, USA) was given per os at a 50 mg/kg BW dose, daily. Two different sequential treatments were performed. In the first one, mice were treated one day after tumor inoculation with olaparib for 2 weeks followed by 4 weeks of TAX2. In the second one, mice were randomized 7 days after tumor inoculation and first treated with olaparib daily for 5 weeks or an identical volume of olaparib vehicle composed of 10% (2-hydroxypropyl)-β-cyclodextrin and 10% DMSO in D-PBS buffer. Mice were then sequentially treated with TAX2 for a maximum of 3 weeks. […] Mice were weighed twice or thrice a week and abdominal distension was measured using a digital caliper. Tumor burden was monitored using body weight change as a measure of ascitic fluid buildup post inoculation as previously described in the same model. Gain of 20% body weight was considered as the end point for survival analysis. In this orthotopic model, it is impossible to determine whether the absence of tumor uptake is treatment related or not. Therefore, mice showing no signs of tumor development (carcinosis, nodules, or ascites) at the time of euthanasia were excluded to avoid misinterpretation of the results.\nTwo-tailed Pearson and Spearman tests were used to assess the correlation between two linear or monotonic variables, respectively, and Mann–Whitney test was used where appropriate. Mouse survival curves were generated using Kaplan–Meier analysis with Gehan–Breslow–Wilcoxon tests as previously reported for ID8 syngeneic model. All graphs and statistics were generated with Prism (GraphPad Software, La Jolla, CA) using the statistical tests and sample sizes indicated in the figure legends."}, "[3]": {"assay": "Toxicology and safety pharmacology studies in dogs", "settings": "beagle dogs, data not shown"}, "[4]": {"assay": "Toxicology and safety pharmacology studies in rats", "settings": "Sprague–Dawley rats, data not shown"}}, "data": [{"smiles": "CC(C)C[C@@H]1NC(=O)[C@H](CC(C)C)NC(=O)[C@H](CCC(N)=O)NC(=O)[C@H](CO)NC(=O)[C@H](C(C)C)NC(=O)[C@H](CCC(=O)O)NC(=O)[C@@H](N)CSSC[C@@H](C(=O)O)NC(=O)[C@H](C)NC(=O)[C@H](CC(=O)O)NC(=O)CNC(=O)[C@H](CCCCN)NC1=O", "note": "[TAX2]", "values": [{"measurement": "Localization at tumor sites", "setting": "[1]", "result": "localization of TAX2 at tumor sites"}, {"measurement": "Mice surviving for the duration of the experimental protocol (weak peritoneal carcinomatosis)", "setting": "[2]; TAX2 30 mg/kg IV 3 times weekly for 6 weeks", "result": "1 out of 9"}, {"measurement": "Mouse survival, prolonged olaparib design", "setting": "[2]", "result": "further improved survival"}, {"measurement": "Animal survival versus controls (Kaplan–Meier)", "setting": "[2]", "result": "modestly but significantly extended the survival rate"}, {"measurement": "Median survival", "setting": "[2]; control 38 days", "result": 44, "unit": "days"}, {"measurement": "Tolerability after systemic administration", "setting": "[3]", "result": "very well tolerated"}, {"measurement": "Tolerability after systemic administration", "setting": "[4]", "result": "very well tolerated"}]}, {"smiles": "O=C(c1cc(Cc2n[nH]c(=O)c3ccccc23)ccc1F)N1CCN(C(=O)C2CC2)CC1", "note": "[olaparib]", "values": [{"measurement": "Mouse survival, prolonged olaparib design", "setting": "[2]", "result": "increased mouse survival"}, {"measurement": "Mice exhibiting no response to olaparib (tumor burden)", "setting": "[2]; olaparib 50 mg/kg per os daily for 2 weeks, n = 20, tumor burden by body weight change", "result": 75, "unit": "%"}, {"measurement": "Median survival of olaparib-resistant mice", "setting": "[2]; olaparib alone 50 mg/kg per os daily for 2 weeks, unresponsive mice n = 14, control 38 days", "result": 41, "unit": "days"}, {"measurement": "Animal survival versus controls (Kaplan–Meier)", "setting": "[2]", "result": "failed to improve animal survival"}, {"measurement": "Median survival", "setting": "[2]; control 38 days", "result": 43, "unit": "days"}]}]}
